From US10407467B2, “Polymyxin derivatives and their use in combination therapy together with different antibiotics” (priority 2013, dated 2019)
Counter-ions that a name gives are not always drawn. Like-named read-outs stand apart in the source and are kept apart here. Bridge positions count the residues as written; N and C are the ends. Square brackets hold non-standard residues; d marks the D form. Peptide text beside a SMILES is read from it. * marks the point of attachment. ξ: configuration not given here. ξHexahydromandeloyl = O=C(C(O)C1CCCCC1)*; Thr(3ξ) = CC(O)[C@H](N)C(=O)O; Dab = NCC[C@H](N)C(=O)O; Ahp = NCCCCCCC(=O)O

Columns and labels:
Acinetobacter baumannii [1] = assay: MIC, compound in combination with a second agent (broth microdilution); assay type: cell-based; settings: 1:1 (wt:wt) combination with Rifampicin, MIC = total drug concentration; for MIC A. baumannii ATCC BAA-747: strain ATCC BAA-747; for MIC A. baumannii CCUG57249: strain CCUG57249; for MIC A. baumannii NCTC 13423: strain NCTC 13423; for MIC A. baumannii NCTC 13424: strain NCTC 13424
Method in brief: (§1)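 Broth microdilution with inoculum from 18-24 h Mueller-Hinton agar colonies adjusted to 0.5 McFarland, up to four strains per species. Compound combined 1:1 w/w with second agent (e.g. rifampicin), mass as salt form; MIC is total drug concentration. Duplicates, lower value reported if within 2-fold; modal value for repeat tests.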

Escherichia coli [2] = assay: as above; assay type: cell-based; settings: 1:1 (wt:wt) combination with Rifampicin, MIC = total drug concentration; for MIC E. coli ATCC25922: strain ATCC25922; for MIC E. coli NCTC9001: strain NCTC9001
Method in brief: as §1

Klebsiella pneumoniae [3] = assay: as above; assay type: cell-based; settings: 1:1 (wt:wt) combination with Rifampicin, MIC = total drug concentration; for MIC K. pneumoniae CCUG-59348: strain CCUG-59348
Method in brief: as §1

Pseudomonas aeruginosa [4] = assay: as above; assay type: cell-based; settings: 1:1 (wt:wt) combination with Rifampicin, MIC = total drug concentration; for MIC P. aeruginosa ATCC 27853: strain ATCC 27853; for MIC P. aeruginosa ATCC-47: strain ATCC-47; for MIC P. aeruginosa CCUG 59626: strain CCUG 59626
Method in brief: as §1

Acinetobacter baumannii [5] = assay: MIC, sole activity (no second agent); assay type: cell-based
Method in brief: (§2)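 Compound tested without a second agent in cation-adjusted MHB, up to four strains per species, inoculum at 0.5 McFarland from colonies grown 18-24 h on Mueller-Hinton agar. Run in duplicate, invalid beyond 2-fold disagreement, lower duplicate or modal repeat value given, expressed relative to Polymyxin B.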

Escherichia coli [6] = assay: MIC, sole activity (no second agent); assay type: cell-based
Method in brief: as §2

Klebsiella pneumoniae [7] = assay: MIC, sole activity (no second agent); assay type: cell-based
Method in brief: as §2

Pseudomonas aeruginosa [8] = assay: MIC, sole activity (no second agent); assay type: cell-based
Method in brief: as §2

HK-2 cell line = assay: In vitro renal cell toxicity assay (resazurin reduction); assay type: cell-based, human
P. aeruginosa ATCC 27853 = settings: ATCC 27853, in vivo
[9] = Table 6A, no second agent, different supplier of Cation-adjusted MHB
[10] = in the absence of Rifampicin, strain ATCC25922
[11] = in the absence of Rifampicin, strain ATCC 4352
[12] = in the absence of Rifampicin, strain ATCC27853

Compound	MIC A. baumannii ATCC BAA-747 (Acinetobacter baumannii [1])	MIC A. baumannii CCUG57249 (Acinetobacter baumannii [1])	MIC A. baumannii NCTC 13423 (Acinetobacter baumannii [1])	MIC A. baumannii NCTC 13424 (Acinetobacter baumannii [1])	MIC E. coli ATCC25922 (Escherichia coli [2])	MIC E. coli NCTC9001 (Escherichia coli [2])	MIC K. pneumoniae CCUG-59348 (Klebsiella pneumoniae [3])	MIC P. aeruginosa ATCC 27853 (Pseudomonas aeruginosa [4])	MIC P. aeruginosa ATCC-47 (Pseudomonas aeruginosa [4])	MIC P. aeruginosa CCUG 59626 (Pseudomonas aeruginosa [4])	MIC E. coli ATCC25922 (Escherichia coli [6]; [10])	MIC K. pneumoniae ATCC 4352 (Klebsiella pneumoniae [7]; [11])	MIC P. aeruginosa ATCC 27853 (Pseudomonas aeruginosa [8]; [12])	HK-2 IC50 rel to PMB (HK-2 cell line)	Log reduction from vehicle (CFU/g) (P. aeruginosa ATCC 27853; iv, 2 mg/kg, 9 h)	Log reduction from vehicle (CFU/g) (P. aeruginosa ATCC 27853; iv, 4 mg/kg, 9 h)	HK-2 relative to PMB (HK-2 cell line)	HK-2 toxicity (IC50) compared with PMB (HK-2 cell line)	also measured
CC(C)C[C@@H]1NC(=O)[C@@H](Cc2ccccc2)NC(=O)[C@H](CCN)NC(=O)[C@@H](NC(=O)[C@H](CCN)NC(=O)[C@@H](NC(=O)[C@H](CCN)NC(=O)CC(N)C2CCCCC2)C(C)O)CCNC(=O)[C@H](C(C)O)NC(=O)[C@H](CCN)NC(=O)[C@H](CCN)NC1=O (mixture of isomers) [Example 39, 3-(RS)-(3-Amino-3-cyclohexyl)propanoyl polymyxin B decapeptide, trifluoroacetate salt]	0.125 micrograms/mL	≤0.06 micrograms/mL	≤0.06 micrograms/mL	0.125 micrograms/mL	≤0.06 micrograms/mL	0.125 micrograms/mL	1 micrograms/mL	0.125 micrograms/mL	0.125 micrograms/mL	0.125 micrograms/mL	2 micrograms/mL	1 micrograms/mL	0.125 micrograms/mL	1.5-2	2.56 log CFU/g	3.88 log CFU/g			MIC P. aeruginosa ATCC CRM-9027 (Pseudomonas aeruginosa [4]; strain ATCC CRM-9027): 0.25 micrograms/mL; MIC A. baumannii ATCC BAA-747 (Acinetobacter baumannii [5]; [9]): 1 micrograms/mL; MIC A. baumannii NCTC 13424 (Acinetobacter baumannii [5]; [9]): 2 micrograms/mL; MIC A. baumannii ATCC13424 (Acinetobacter baumannii [5]; in the absence of Rifampicin, strain ATCC13424): 0.125 micrograms/mL; MIC A. baumannii ATCCBAA-747 (Acinetobacter baumannii [5]; in the absence of Rifampicin, strain ATCCBAA-747): 1 micrograms/mL; MIC A. baumannii CCUG57249 (Acinetobacter baumannii [5]; in the absence of Rifampicin, strain CCUG 57249): 1 micrograms/mL; MIC A. baumannii NCTC 13423 (Acinetobacter baumannii [5]; in the absence of Rifampicin, strain NCTC13423): 0.25 micrograms/mL; MIC E. coli ATCC25922 (Escherichia coli [6]; [9]): 2 micrograms/mL; MIC E. coli NCTC 13441 (Escherichia coli [6]; [9]): 2 micrograms/mL; MIC E. coli NCTC9001 (Escherichia coli [6]; in the absence of Rifampicin, strain NCTC9001): 4 micrograms/mL; MIC K. pneumoniae ATCC 4352 (Klebsiella pneumoniae [7]; [9]): 1 micrograms/mL; MIC K. pneumoniae ATCC BAA-2146 (Klebsiella pneumoniae [7]; [9]): 2 micrograms/mL; MIC K. pneumoniae ATCC-BAA2146 (Klebsiella pneumoniae [7]; in the absence of Rifampicin, strain ATCC-BAA2146): 32 micrograms/mL; MIC K. pneumoniae CCUG-59348 (Klebsiella pneumoniae [7]; in the absence of Rifampicin, strain CCUG-59348): >32 micrograms/mL; MIC P. aeruginosa ATCC 27853 (Pseudomonas aeruginosa [8]; [9]): 0.25 micrograms/mL; MIC P. aeruginosa CCUG 59347 (Pseudomonas aeruginosa [8]; [9]): 0.5 micrograms/mL; MIC P. aeruginosa ATCC-47 (Pseudomonas aeruginosa [8]; in the absence of Rifampicin, strain ATCC-47): 1 micrograms/mL; MIC P. aeruginosa ATCCCRM-9027 (Pseudomonas aeruginosa [8]; in the absence of Rifampicin, strain ATCCCRM-9027): 0.125 micrograms/mL; MIC P. aeruginosa CCUG 59626 (Pseudomonas aeruginosa [8]; in the absence of Rifampicin, strain CCUG 59626): ≤0.06 micrograms/mL
CCCCCC(N)CC(=O)N[C@H](C(=O)N[C@@H](CCN)C(=O)N[C@H]1CCNC(=O)[C@H](C(C)O)NC(=O)[C@H](CCN)NC(=O)[C@H](CCN)NC(=O)[C@H](CC(C)C)NC(=O)[C@@H](Cc2ccccc2)NC(=O)[C@H](CCN)NC1=O)C(C)O (single isomer, unassigned; isomer 2) [Example A33, 3-(RS)-3-amino octanoyl polymyxin B nonapeptide. Isomer 2]														9.7			9.7	significantly increased recorded IC50 values	Log reduction from vehicle (CFU/g) (P. aeruginosa ATCC 27853; 3.4 mg/kg, 24 h): 3.54 log CFU/g
CC(C)C[C@@H]1NC(=O)[C@@H](Cc2ccccc2)NC(=O)[C@H](CCN)NC(=O)[C@@H](NC(=O)[C@H](CCN)NC(=O)[C@@H](NC(=O)CCCCCCN)C(C)O)CCNC(=O)[C@H](C(C)O)NC(=O)[C@H](CCN)NC(=O)[C@H](CCN)NC1=O (stereo partly drawn) [Example 13, 7-Aminoheptanoyl polymyxin B nonapeptide] (H-[Ahp][Thr(3ξ)][Dab][Dab][Dab][dF]L[Dab][Dab][Thr(3ξ)]; lactam 4-C)	≤0.06 micrograms/mL	0.125 micrograms/mL	≤0.06 micrograms/mL	0.125 micrograms/mL	0.125 micrograms/mL	0.5 micrograms/mL	4 micrograms/mL	0.25 micrograms/mL	0.25 micrograms/mL	0.125 micrograms/mL	1 micrograms/mL	2 micrograms/mL	0.25 micrograms/mL				14	significantly increased recorded IC50 values	MIC K. pneumoniae ATCC 4352 (Klebsiella pneumoniae [3]; strain ATCC 4352): 0.125 micrograms/mL; MIC K. pneumoniae ATCC-BAA-2146 (Klebsiella pneumoniae [3]; strain ATCC-BAA-2146): 0.5 micrograms/mL; MIC K. pneumoniae NCTC 13438 (Klebsiella pneumoniae [3]; strain NCTC 13438): 1 micrograms/mL
CC(C)C[C@@H]1NC(=O)[C@@H](Cc2ccccc2)NC(=O)[C@H](CCN)NC(=O)[C@@H](NC(=O)[C@H](CCN)NC(=O)[C@@H](NC(=O)[C@H](CCN)NC(=O)C(O)C2CCCCC2)C(C)O)CCNC(=O)[C@H](C(C)O)NC(=O)[C@H](CCN)NC(=O)[C@H](CCN)NC1=O (stereo partly drawn) [Example A3, 2-(RS)-(2-Hydroxy-2-cyclohexyl)ethanoyl polymyxin B decapeptide] (ξHexahydromandeloyl-[Dab][Thr(3ξ)][Dab][Dab][Dab][dF]L[Dab][Dab][Thr(3ξ)]; lactam 4-C)														4	0.12 log CFU/g	3.34 log CFU/g			
